ChEMBL document CHEMBL3885861, “Open TG-GATES”

Organism: Rattus norvegicus
Assay: Open TG-GATES - Regimen: Daily Repeat
Assay type: toxicity, organism-based, Sprague-Dawley
Parameters: regimen Daily Repeat, gender Male, age 6 weeks
Details: in vivo, po, route gavage; for APTT / Bas / Eos / Fbg / Hb / Ht / Lym / MCH / MCHC / MCV / Mono / Neu / PT / Plat / RBC / Ret / WBC: tissue Blood; for KIDNEY_L / KIDNEY_R / KIDNEY_TOTAL: tissue Kidney; for LIVER: tissue Liver; for A/G / ALP / ALT / AST / BUN / CRE / Ca / Cl / DBIL / GLC / IP / K / LDH / Na / PL / RALB / TBIL / TC / TG / TP / gamma-GTP: tissue Plasma
[1] = 0 mg/kg, 72 h, dose level Control, time 3 day
[2] = 0 mg/kg, […], dose level Control, time 7 day
[3] = 0 mg/kg, […], dose level Control, time 14 day
[4] = 0 mg/kg, […], dose level Control, time 28 day
[5] = 30 mg/kg, 72 h, dose level Low, time 3 day
[6] = 30 mg/kg, […], dose level Low, time 7 day
[7] = 30 mg/kg, […], dose level Low, time 14 day
[8] = 30 mg/kg, […], dose level Low, time 28 day

## C[C@]12CCC(=O)C=C1CC[C@@H]1[C@@H]2CC[C@@]2(C)[C@H]1CC[C@]2(C)O [METHYLTESTOSTERONE]
[1]
  TERMINAL_BW: 237.3 g
  APTT: 16.2 s
  Bas: 0%
  Eos: 1.2%
  Fbg: 280 mg/dL
  Hb: 13.4 g/dL
  Ht: 38.9%
  Lym: 78.4%
  MCH: 21.6 pg
  MCHC: 34.4%
  MCV: 62.7 fL
  Mono: 2.4%
  Neu: 17.4%
  PT: 12.9 s
  Plat: 119.6 x10_4/uL
  RBC: 619.6 x10_4/ul
  Ret: 6.7%
  WBC: 73.9 x10_2/uL
  KIDNEY_L: 1 g
  KIDNEY_R: 1 g
  KIDNEY_TOTAL: 2 g
  LIVER: 10.9 g
  A/G: 0.9
  ALP: 1982.8 IU/L
  ALT: 45.6 IU/L
  AST: 73.2 IU/L
  BUN: 15.2 mg/dL
  CRE: 0.2 mg/dL
  Ca: 10.9 mg/dL
  Cl: 108.2 meq/L
  DBIL: 0.014 mg/dL
  GLC: 186.4 mg/dL
  IP: 7.5 mg/dL
  K: 4.2 meq/L
  LDH: 54.4 IU/L
  Na: 142.6 meq/L
  PL: 142.8 mg/dL
  RALB: 2.6 g/dL
  TBIL: 0.028 mg/dL
  TC: 77.8 mg/dL
  TG: 87.2 mg/dL
  TP: 5.6 g/dL
  gamma-GTP: 1 IU/L
[2]
  TERMINAL_BW: 278.3 g
  APTT: 16.6 s
  Bas: 0%
  Eos: 0.8%
  Fbg: 272 mg/dL
  Hb: 13.4 g/dL
  Ht: 39%
  Lym: 81.8%
  MCH: 21.4 pg
  MCHC: 34.3%
  MCV: 62.6 fL
  Mono: 2.2%
  Neu: 15%
  PT: 13.1 s
  Plat: 136.7 x10_4/uL
  RBC: 623.8 x10_4/ul
  Ret: 5.6%
  WBC: 87.3 x10_2/uL
  KIDNEY_L: 1.2 g
  KIDNEY_R: 1.1 g
  KIDNEY_TOTAL: 2.3 g
  LIVER: 12.2 g
  A/G: 0.9
  ALP: 1755.8 IU/L
  ALT: 41.2 IU/L
  AST: 71.6 IU/L
  BUN: 16.4 mg/dL
  CRE: 0.2 mg/dL
  Ca: 11 mg/dL
  Cl: 104.8 meq/L
  DBIL: 0.018 mg/dL
  GLC: 192.4 mg/dL
  IP: 7.5 mg/dL
  K: 4 meq/L
  LDH: 68.4 IU/L
  Na: 142 meq/L
  PL: 136.4 mg/dL
  RALB: 2.7 g/dL
  TBIL: 0.028 mg/dL
  TC: 73 mg/dL
  TG: 100.6 mg/dL
  TP: 5.8 g/dL
  gamma-GTP: 1.2 IU/L
[3]
  TERMINAL_BW: 322 g
  APTT: 15.9 s
  Bas: 0.2%
  Eos: 1%
  Fbg: 288.4 mg/dL
  Hb: 14.7 g/dL
  Ht: 42.6%
  Lym: 80.6%
  MCH: 20.7 pg
  MCHC: 34.6%
  MCV: 59.8 fL
  Mono: 2.6%
  Neu: 15.4%
  PT: 12.8 s
  Plat: 112.1 x10_4/uL
  RBC: 713 x10_4/ul
  Ret: 3.6%
  WBC: 88 x10_2/uL
  KIDNEY_L: 1.2 g
  KIDNEY_R: 1.2 g
  KIDNEY_TOTAL: 2.5 g
  LIVER: 13.6 g
  A/G: 0.8
  ALP: 1238.8 IU/L
  ALT: 51.8 IU/L
  AST: 71.4 IU/L
  BUN: 16.4 mg/dL
  CRE: 0.2 mg/dL
  Ca: 10.6 mg/dL
  Cl: 105.8 meq/L
  DBIL: 0.018 mg/dL
  GLC: 187 mg/dL
  IP: 7 mg/dL
  K: 4.2 meq/L
  LDH: 96.2 IU/L
  Na: 141.6 meq/L
  PL: 144 mg/dL
  RALB: 2.7 g/dL
  TBIL: 0.032 mg/dL
  TC: 75.6 mg/dL
  TG: 127 mg/dL
  TP: 5.9 g/dL
  gamma-GTP: 1.2 IU/L
[4]
  TERMINAL_BW: 397.8 g
  APTT: 17.5 s
  Bas: 0%
  Eos: 1.2%
  Fbg: 269.8 mg/dL
  Hb: 15.7 g/dL
  Ht: 44.4%
  Lym: 78.2%
  MCH: 19.7 pg
  MCHC: 35.4%
  MCV: 55.9 fL
  Mono: 2%
  Neu: 17.6%
  PT: 13.5 s
  Plat: 106.1 x10_4/uL
  RBC: 794.6 x10_4/ul
  Ret: 2.1%
  WBC: 94.3 x10_2/uL
  KIDNEY_L: 1.4 g
  KIDNEY_R: 1.4 g
  KIDNEY_TOTAL: 2.8 g
  LIVER: 14.9 g
  A/G: 0.8
  ALP: 1136 IU/L
  ALT: 37.8 IU/L
  AST: 62.2 IU/L
  BUN: 16.4 mg/dL
  CRE: 0.2 mg/dL
  Ca: 11.3 mg/dL
  Cl: 105.4 meq/L
  DBIL: 0.016 mg/dL
  GLC: 182.6 mg/dL
  IP: 6.2 mg/dL
  K: 3.9 meq/L
  LDH: 59.8 IU/L
  Na: 143 meq/L
  PL: 127.8 mg/dL
  RALB: 2.8 g/dL
  TBIL: 0.03 mg/dL
  TC: 63.4 mg/dL
  TG: 120.6 mg/dL
  TP: 6.2 g/dL
  gamma-GTP: 0.8 IU/L
[5]
  TERMINAL_BW: 237.2 g
  APTT: 15.8 s
  Bas: 0%
  Eos: 1.2%
  Fbg: 296.2 mg/dL
  Hb: 13.3 g/dL
  Ht: 38.8%
  Lym: 75.2%
  MCH: 21.5 pg
  MCHC: 34.2%
  MCV: 63 fL
  Mono: 2.6%
  Neu: 20.8%
  PT: 12.8 s
  Plat: 111.2 x10_4/uL
  RBC: 617 x10_4/ul
  Ret: 6.6%
  WBC: 57.6 x10_2/uL
  KIDNEY_L: 1 g
  KIDNEY_R: 1 g
  KIDNEY_TOTAL: 2 g
  LIVER: 11.1 g
  A/G: 0.9
  ALP: 1870.2 IU/L
  ALT: 45.4 IU/L
  AST: 69.6 IU/L
  BUN: 15 mg/dL
  CRE: 0.2 mg/dL
  Ca: 11 mg/dL
  Cl: 107.6 meq/L
  DBIL: 0.018 mg/dL
  GLC: 195 mg/dL
  IP: 7.9 mg/dL
  K: 4.1 meq/L
  LDH: 58.2 IU/L
  Na: 144 meq/L
  PL: 144 mg/dL
  RALB: 2.7 g/dL
  TBIL: 0.03 mg/dL
  TC: 67.2 mg/dL
  TG: 123.6 mg/dL
  TP: 5.8 g/dL
  gamma-GTP: 1.4 IU/L
[6]
  TERMINAL_BW: 271.8 g
  APTT: 16.5 s
  Bas: 0%
  Eos: 1%
  Fbg: 308.4 mg/dL
  Hb: 13.1 g/dL
  Ht: 38.1%
  Lym: 76.8%
  MCH: 21 pg
  MCHC: 34.4%
  MCV: 61 fL
  Mono: 3%
  Neu: 18.6%
  PT: 13 s
  Plat: 111.9 x10_4/uL
  RBC: 625.6 x10_4/ul
  Ret: 5.8%
  WBC: 78.3 x10_2/uL
  KIDNEY_L: 1.1 g
  KIDNEY_R: 1.1 g
  KIDNEY_TOTAL: 2.3 g
  LIVER: 12.5 g
  A/G: 0.9
  ALP: 1824.8 IU/L
  ALT: 46.8 IU/L
  AST: 75.2 IU/L
  BUN: 15 mg/dL
  CRE: 0.2 mg/dL
  Ca: 10.9 mg/dL
  Cl: 106 meq/L
  DBIL: 0.02 mg/dL
  GLC: 190.4 mg/dL
  IP: 7.6 mg/dL
  K: 4.1 meq/L
  LDH: 63.6 IU/L
  Na: 142.4 meq/L
  PL: 133 mg/dL
  RALB: 2.7 g/dL
  TBIL: 0.026 mg/dL
  TC: 54.6 mg/dL
  TG: 133 mg/dL
  TP: 5.8 g/dL
  gamma-GTP: 1.2 IU/L
[7]
  TERMINAL_BW: 329.8 g
  APTT: 17.7 s
  Bas: 0.2%
  Eos: 1%
  Fbg: 289.2 mg/dL
  Hb: 14.4 g/dL
  Ht: 41.7%
  Lym: 79.2%
  MCH: 20.6 pg
  MCHC: 34.6%
  MCV: 59.6 fL
  Mono: 2.4%
  Neu: 16%
  PT: 13.3 s
  Plat: 114.4 x10_4/uL
  RBC: 700.2 x10_4/ul
  Ret: 3.9%
  WBC: 96.1 x10_2/uL
  KIDNEY_L: 1.3 g
  KIDNEY_R: 1.2 g
  KIDNEY_TOTAL: 2.5 g
  LIVER: 14.5 g
  A/G: 0.8
  ALP: 1301 IU/L
  ALT: 49.8 IU/L
  AST: 72.8 IU/L
  BUN: 16.4 mg/dL
  CRE: 0.2 mg/dL
  Ca: 10.5 mg/dL
  Cl: 106.8 meq/L
  DBIL: 0.02 mg/dL
  GLC: 192.6 mg/dL
  IP: 7.1 mg/dL
  K: 4 meq/L
  LDH: 132.6 IU/L
  Na: 142.2 meq/L
  PL: 134.2 mg/dL
  RALB: 2.7 g/dL
  TBIL: 0.026 mg/dL
  TC: 54 mg/dL
  TG: 178.6 mg/dL
  TP: 5.9 g/dL
  gamma-GTP: 1.2 IU/L
[8]
  TERMINAL_BW: 409.3 g
  APTT: 19.2 s
  Bas: 0%
  Eos: 1.4%
  Fbg: 300.2 mg/dL
  Hb: 15.7 g/dL
  Ht: 44.9%
  Lym: 75.8%
  MCH: 19.5 pg
  MCHC: 35%
  MCV: 55.6 fL
  Mono: 2.6%
  Neu: 20.2%
  PT: 13.1 s
  Plat: 101.6 x10_4/uL
  RBC: 809.2 x10_4/ul
  Ret: 2.2%
  WBC: 84 x10_2/uL
  KIDNEY_L: 1.4 g
  KIDNEY_R: 1.4 g
  KIDNEY_TOTAL: 2.9 g
  LIVER: 17.1 g
  A/G: 0.8
  ALP: 1236.2 IU/L
  ALT: 43.6 IU/L
  AST: 66.8 IU/L
  BUN: 16.6 mg/dL
  CRE: 0.2 mg/dL
  Ca: 11.1 mg/dL
  Cl: 105.2 meq/L
  DBIL: 0.022 mg/dL
  GLC: 192 mg/dL
  IP: 6.7 mg/dL
  K: 3.9 meq/L
  LDH: 76.6 IU/L
  Na: 143.6 meq/L
  PL: 141.4 mg/dL
  RALB: 2.9 g/dL
  TBIL: 0.034 mg/dL
  TC: 56.2 mg/dL
  TG: 214 mg/dL
  TP: 6.3 g/dL
  gamma-GTP: 1 IU/L
